Data set [1] is described as follows: Spectrophotometric response of dyes in dilute acetonitrile solution. It is filed as physicochemical. The following applies: for Extinction: in M-1 cm-1 (unit assumed). The text has this:
As mentioned previously, many characteristics of a photographic image depend upon the spectral response of the dyes forming that image. The greater the molar extinction of an image-forming dye the less silver is needed to produce that dye; lower silver laydowns may lead to sharper photographic images. The color of a dye depends upon the position of its maximum light absorption (λ-max). With yellow dyes, the deeper (more bathochromic) the λmax of the dye the more orange the color of the dye. Orange dyes cannot be employed to effectively reproduce bright lemon yellows, thus lighter yellow dyes arc preferred for better color reproduction. Finally, the ideal yellow dye absorbs only light in the blue portion of the visible spectrum; yellow dyes that absorb substantial amounts of green light appear desaturated and therefore yield poorer color reproduction. The bathochromic (long wavelength side) one-half bandwidth (B1/2BW) is a good measure of the degree of unwanted absorption of a yellow dye. The B1/2BW is the distance on the long wavelength side of the dye's spectral response curve, in nanometers, from the λmax to the wavelength of 1/2 the maximum absorption. The smaller the B1/2BW distance, the more sharp-cutting is the spectral response of a dye and the better the color reproduction available from the dye.
^a. Spectrophotometric data derived from dilute acetonitrile solution
of chromatographically homogenous dyes; see Table 3 for invention dye

A short description of data set [2]: Accelerated solution test of acid hydrolysis of yellow dyes (HPLC). Also noted: kobs rate of hydrolysis: unit not given here. Format: physicochemical. The following applies: 1 mM dye in 6% Triton X100, pH 2.0, phosphate buffer, 50° C. As for the experimental part: The hydrolytic stability or acid catalyzed decomposition of yellow azomethine dyes is an important pathway in the degradation of photographic images. It is believed that the stability of yellow dyes toward acidic hydrolysis is predictive of their stability in color photographic images.
The rates of hydrolysis of a variety of dyes have been measured using an accelerated solution test format. The dyes (1.0 mM dye in 6% Triton X-100®) in buffered acidic solutions (pH=2.0, μ=0.2, phosphate buffer) were held at 50° C. The rates of dye destruction were monitored using standard HPLC procedures.
^a. 1 mM dye in 6% Triton X100 ® (60 g/l octylphenoxy
polyethoxyethanols, Avg M.W. = 646) solution in pH 2.0, […],
phosphate buffer at 50° C.

Here are results for 27 compounds from patent US6083677A, “Photographic element containing yellow dye-forming photographic coupler” (Eastman Kodak Company, priority 1998, dated 2000).

Consider `CCCCc1ccc(NC(=O)C(=Nc2ccc(N(CC)CCNS(C)(=O)=O)cc2C)C(=O)c2ccn(-c3ccccc3)c2)cc1` [Cmp-1, reference compound], for which, in data set [1], the “B1/2BW (bathochromic one-half bandwidth)” value was determined as 42 nm, the λmax was 430 nm and the Extinction was 12,800.

Turning to `CCCCc1ccc(NC(=O)C(=Nc2ccc(N(CC)CCNS(C)(=O)=O)cc2C)C(=O)c2cn(-c3ccccc3)cc2C)cc1` [Cmp-2, reference compound], in data set [1], the “B1/2BW (bathochromic one-half bandwidth)” value is recorded as 40 nm, the λmax is 428 nm and the Extinction is 13,900.

As to `CCCCc1ccc(NC(=O)C(=Nc2ccc(N(CC)CCNS(C)(=O)=O)cc2C)C(=O)c2cccn2-c2ccccc2)cc1` [Cmp-3, reference compound], in data set [1], the “B1/2BW (bathochromic one-half bandwidth)” value came to 40 nm, the λmax was 426 nm and the Extinction was 13,700.

`CCCCc1ccc(NC(=O)C(=Nc2ccc(N(CC)CCNS(C)(=O)=O)cc2C)C(=O)c2ccn(-c3ccccc3)c2C)cc1` [Cmp-4, reference compound]: in data set [1], the “B1/2BW (bathochromic one-half bandwidth)” value came out at 40 nm, the λmax is on record as 434 nm and the Extinction is 12,600.

On to `CCCCCCCCCCCCCCCCCCOc1ccc(S(=O)(=O)Nc2ccccc2Cl)cc1NC(=O)C(=Nc1ccc(N(CC)CCNS(C)(=O)=O)cc1C)C(=O)N1CCc2ccccc21` [Cmp-6, reference compound], for which, in data set [2], the “kobs rate of hydrolysis” value was 2.48 and the “t1/2 - time for 1/2 the dye to hydrolyze” value was 78 h.

As for `CCCCc1ccc(NC(=O)C(=Nc2ccc(N(CC)CCNS(C)(=O)=O)cc2C)C(=O)C(C)(C)C)cc1` [Cmp-7, reference compound], in data set [1], the “B1/2BW (bathochromic one-half bandwidth)” value is recorded as 42 nm, the λmax came out at 428 nm and the Extinction is recorded as 11,800.

With `CCCCCCCCCCCCOC(=O)c1ccc(Cl)c(NC(=O)C(=Nc2ccc(N(CC)CCNS(C)(=O)=O)cc2C)C(=O)C(C)(C)C)c1` [Cmp-10, reference compound], in data set [2], the “kobs rate of hydrolysis” value was determined as 5.57 and the “t1/2 - time for 1/2 the dye to hydrolyze” value is 35 h.

Take `CCCCCCCCCCCCCCCCS(=O)(=O)Nc1ccc(Cl)c(NC(=O)C(=Nc2ccc(N(CC)CCNS(C)(=O)=O)cc2C)C(=O)C(C)(C)C)c1` [Cmp-11, reference compound]: in data set [2], the “kobs rate of hydrolysis” value turned out to be 12.1 and the “t1/2 - time for 1/2 the dye to hydrolyze” value was determined as 16 h.

`CCCCc1ccc(NC(=O)C(=Nc2ccc(N(CC)CCNS(C)(=O)=O)cc2C)C(=O)c2c(-c3ccccc3)n(C)c3ccccc23)cc1` [Coupler D-1]: in data set [1], the “B1/2BW (bathochromic one-half bandwidth)” value amounted to 32 nm, the λmax turned out to be 426 nm and the Extinction is 19,700.

Take `CCCCc1ccc(NC(=O)C(=Nc2ccc(N(CC)CCNS(C)(=O)=O)cc2C)C(=O)c2c(C)[nH]c3ccccc23)cc1` [Coupler D-2]: in data set [1], the “B1/2BW (bathochromic one-half bandwidth)” value is listed as 37 nm, the λmax is listed as 426 nm and the Extinction was 10,000.

As to `CCCCc1ccc(NC(=O)C(=Nc2ccc(N(CC)CCNS(C)(=O)=O)cc2C)C(=O)c2cn(C)c3ccccc23)cc1` [Coupler D-3], in data set [1], the “B1/2BW (bathochromic one-half bandwidth)” value was found to be 39 nm, the λmax was 428 nm and the Extinction is 13,500.

For `CCCCc1ccc(NC(=O)C(=Nc2ccc(N(CC)CCNS(C)(=O)=O)cc2C)C(=O)c2c(C)n(C)c3ccccc23)cc1` [Coupler D-4], in data set [1], the “B1/2BW (bathochromic one-half bandwidth)” value was found to be 37 nm, the λmax came to 428 nm and the Extinction is reported as 16,200.

`CCCCc1ccc(NC(=O)C(=Nc2ccc(N(CC)CCNS(C)(=O)=O)cc2C)C(=O)c2c(C3CCCCC3)n(C)c3ccccc23)cc1` [Coupler D-5]: in data set [1], the “B1/2BW (bathochromic one-half bandwidth)” value is reported as 37 nm, the λmax was 428 nm and the Extinction is listed as 16,800.

For `CCCCc1ccc(NC(=O)C(=Nc2ccc(N(CC)CCNS(C)(=O)=O)cc2C)C(=O)c2c3n(c4ccccc24)CCCC3)cc1` [Coupler D-6], in data set [1], the “B1/2BW (bathochromic one-half bandwidth)” value came out at 38 nm, the λmax is recorded as 426 nm and the Extinction is listed as 17,300.

On to `CCCCc1ccc(NC(=O)C(=Nc2ccc(N(CC)CCNS(C)(=O)=O)cc2C)C(=O)c2c(-c3ccccc3)[nH]c3ccccc23)cc1` [Coupler D-7], for which, in data set [1], the “B1/2BW (bathochromic one-half bandwidth)” value worked out at 35 nm, the λmax came to 430 nm and the Extinction is 14,100.

For `CCCCc1ccc(NC(=O)C(=Nc2ccc(N(CC)CCNS(C)(=O)=O)cc2C)C(=O)c2c(-c3ccccc3)n(-c3ccccc3)c3ccccc23)cc1` [Coupler D-8], in data set [1], the “B1/2BW (bathochromic one-half bandwidth)” value worked out at 33 nm, the λmax stood at 426 nm and the Extinction is listed as 16,600.

With `CCCCc1ccc(NC(=O)C(=Nc2ccc(N(CC)CCNS(C)(=O)=O)cc2C)C(=O)c2c3c(n(C)c2-c2ccccc2)CCCC3)cc1` [Coupler D-9], in data set [1], the “B1/2BW (bathochromic one-half bandwidth)” value was found to be 34 nm, the λmax stood at 422 nm and the Extinction was 19,300.

Consider `CCCCc1ccc(NC(=O)C(=Nc2ccc(N(CC)CCNS(C)(=O)=O)cc2C)C(=O)c2c3c(n(C)c2-c2ccccc2)CCC3)cc1` [Coupler D-10], for which, in data set [1], the “B1/2BW (bathochromic one-half bandwidth)” value is recorded as 35 nm, the λmax is reported as 424 nm and the Extinction is on record as 17,700.

On to `CCCCc1ccc(NC(=O)C(=Nc2ccc(N(CC)CCNS(C)(=O)=O)cc2C)C(=O)c2c(-c3ccccc3)n(C)c3ccc(OC)cc23)cc1` [Coupler D-11], for which, in data set [1], the “B1/2BW (bathochromic one-half bandwidth)” value is 33 nm, the λmax turned out to be 426 nm and the Extinction is recorded as 21,300.

As for `CCCCc1ccc(NC(=O)C(=Nc2ccc(N(CC)CCNS(C)(=O)=O)cc2C)C(=O)c2c(-c3ccccc3)n(C)c3ccc(C#N)cc23)cc1` [Coupler D-12], in data set [1], the “B1/2BW (bathochromic one-half bandwidth)” value amounted to 33 nm, the λmax was determined as 430 nm and the Extinction is given as 20,100.

For the compound `CCCCc1ccc(NC(=O)C(=Nc2ccc(N(CC)CCNS(C)(=O)=O)cc2C)C(=O)c2c(-c3ccccc3)oc3ccccc23)cc1` [Coupler D-13], in data set [1], the “B1/2BW (bathochromic one-half bandwidth)” value amounted to 47 nm, the λmax stood at 444 nm and the Extinction is 13,400.

Turning to `CCCCc1ccc(NC(=O)C(=Nc2ccc(N(CC)CCNS(C)(=O)=O)cc2C)C(=O)c2c(-c3ccccc3)c3ccccc3n2C)cc1` [Coupler D-14], in data set [1], the “B1/2BW (bathochromic one-half bandwidth)” value was 46 nm, the λmax was determined as 438 nm and the Extinction is reported as 11,900.

In the case of `CCCCCCCCCCCCS(=O)(=O)c1ccc(NC(=O)C(=Nc2ccc(N(CC)CCNS(C)(=O)=O)cc2C)C(=O)c2c(-c3ccccc3)n(C)c3ccccc23)c(Cl)c1` [Coupler D-15], in data set [2], the “kobs rate of hydrolysis” value turned out to be 0.17 and the “t1/2 - time for 1/2 the dye to hydrolyze” value is on record as 1,150 hr.

Turning to `CCCCCCCCCCCCn1c(-c2ccccc2)c(C(=O)C(=Nc2ccc(N(CC)CCNS(C)(=O)=O)cc2C)C(=O)Nc2ccc(S(C)(=O)=O)cc2Cl)c2ccccc21` [Coupler D-16], in data set [2], the “kobs rate of hydrolysis” value was 0.38 and the “t1/2 - time for 1/2 the dye to hydrolyze” value came to 500 h.

In the case of `CCCCCCCCCCCCNS(=O)(=O)c1ccc(NC(=O)C(=Nc2ccc(N(CC)CCNS(C)(=O)=O)cc2C)C(=O)c2c(-c3ccccc3)n(C)c3ccccc23)c(Cl)c1` [Coupler D-17], in data set [2], the “kobs rate of hydrolysis” value was 0.31 and the “t1/2 - time for 1/2 the dye to hydrolyze” value was 610 h.

As for `CCCCCCCCCCCCCCCCOC(=O)c1ccc(Cl)c(NC(=O)C(=Nc2ccc(N(CC)CCNS(C)(=O)=O)cc2C)C(=O)c2c(C)n(C)c3ccccc23)c1` [Coupler D-18], in data set [2], the “kobs rate of hydrolysis” value is 9.63 and the “t1/2 - time for 1/2 the dye to hydrolyze” value was 20 h.

`CCCCCCCCCCCCCCCCOC(=O)c1ccc(Cl)c(NC(=O)C(=Nc2ccc(N(CC)CCNS(C)(=O)=O)cc2C)C(=O)c2c(C3CCCCC3)n(C)c3ccccc23)c1` [Coupler D-19]: in data set [2], the “kobs rate of hydrolysis” value amounted to 1.91 and the “t1/2 - time for 1/2 the dye to hydrolyze” value came out at 101 h.
